From US6716829B2, “Aldosterone antagonist and cyclooxygenase-2 inhibitor combination therapy to prevent or treat inflammation-related cardiovascular disorders” (Pharmacia Corporation, priority 2000, dated 2004)

Legend:
[1] = tested on: aldosterone-infused, saline-drinking, uni-nephrectomized rats; assay: Assay B: heart histology (hematoxylin&eosin), vascular inflammatory lesions and myocardial injury; assay type: in vivo, Male Sprague Dawley rats; conditions: eplerenone 100 mpk p.o., 0.6% KCl group, 4 weeks
Description: Assay B: In Vivo Aldosterone Infusion Model Male Sprague Dawley rats (n=39; BW=250 g) […] Uni-nephrectomy performed during implantation of mini-pumps 2. Aldosterone ([…], sc via alzet minipump) 2. […] 1. […] Sacrifice after 4 weeks. Hearts were harvested and divided by half through a transverse section at the mid-ventricles: The upper half was stored into formalin. The bottom part was snap-frozen in liquid nitrogen for biochemical analysis. Hearts were stained with hematoxylin&eosin and the collagen specific dye picro-sirius red and were analyzed for determination of interstitial collagen volume fraction and morphologic abnormalities (i.e. necrosis, vascular injury).

osteopontin = assay: Assay B: osteopontin immunohistochemistry in the heart; assay type: in vivo, Male Sprague Dawley rats; conditions: aldosterone-infused rats; eplerenone 100 mpk; increased dietary potassium group
Description: Assay B: In Vivo Aldosterone Infusion Model Male Sprague Dawley rats (n=39; BW=250 g) 2. Aldosterone (0.75 mg/hr, sc via alzet minipump) 2. […] Determination of osteopontin and COX-2 was performed by quantitative RT-PCR (Taqman). Osteopontin was also identified in the heart by immunohistochemistry.

[2] = tested on: coronary arteries of angiotensin II/salt-treated animals; assay: Assay A: heart histology (hematoxylin&eosin), vascular inflammatory lesions and myocardial injury; assay type: in vivo, Male Wistar rats; conditions: of ten animals per group; angiotensin II/salt; eplerenone 100 mpk; 4 weeks
Excerpt: Sacrifice by exanguination after 4 weeks. Blood was be collected in dry tubes for determination of serum electrolytes and in EDTA-containing tubes for measurement of aldosterone and corticosterone levels Hearts were stained with hematoxylin&eosin and have been analyzed for determination of morphologic abnormalities (i.e. necrosis, vascular injury).

[3] = tested on: angiotensin II infused rats; assay: Assay A, angiotensin II infusion model: systolic blood pressure by tail-cuff; assay type: in vivo, Male Wistar rats; conditions: angiotensin II 25 ng/min sc, 1% NaCl; eplerenone 100 mpk; aldosterone in adrenalectomized rats; 4 weeks
Description: Human cardiovascular disorders are complex conditions, often initiated by vascular hypertension or a myocardial infarction (MI). In order to determine the probable effectiveness of a therapy for cardiovascular disorders, it is important to determine the potency of components in several assays. Accordingly, in Assay “A”, the efficacy of the aldosterone antagonist epeplerenone (epoxymexrenone) was determined in a hypertensive rat model with vascular inflammation, using angiotensin II infusion. In Assay “B” a study is described evaluating the efficacy of the aldosterone antagonist epeplerenone (epoxymexrenone) in a rat model using aldosterone infusion to produce hypertension with vascular inflammation. In Assay “C” a further study is described evaluating the efficacy of the aldosterone antagonist epeplerenone (epoxymexrenone) in a rat model using aldosterone infusion to produce hypertension with vascular inflammation.
Assay A: In Vivo Angiotensin II Infusion Model
Male Wistar rats (n=50, 10/group; BW=200 g)
SBP measured by tail-cuff every week

Molecule | Vascular inflammatory changes / myocardial injury [1] | Osteopontin expression in the heart (immunostaining) (osteopontin) | Animals with vascular inflammatory changes (lesions) in the coronary arteries [2] | Systolic Blood Pressure [3]
[Cl-].[K+] [dietary potassium] | did not have significant effects | did not reduce osteopontin expression |  | 
angiotensin II: infused 25 ng/min sc via alzet minipump to produce hypertensive rat model with vascular inflammation (DRVYIHPF; Angiotensin-2; UniProt P01015 25-32, looked up) |  |  | Seven out of the ten | increased
